Experimental data reported in US20210278408A1, “METHODS OF TREATMENT OF CANCER WITH SUBSTITUTED PYRROLE AND PYRAZOLE COMPOUNDS AND DIAGNOSIS OF CANCERS SUSCEPTIBLE TO TREATMENT WITH SUBSTITUTED PYRROLE AND PYRAZOLE COMPOUNDS” (Bantam Pharmaceutical, LLC, priority 2018, published 2021).
Where two headings read alike, the source gives them in different places.

Key:
HCT-116 = assay: Total cellular GSH levels (GSH-Glo): HCT-116; assay type: cell-based, human; details: 4 hrs, mean ± std. dev.
Method: (§1) NHLF, BJAB, SU-DHL-2, and HCT-116 cells were treated with Compound A197 for 4 hours prior to lysate harvest. Total cellular glutathione (GSH) levels were determined using a luminescent endpoint (GSH-Glo, Promega). Cell proliferation was determined using Cell-Titre Glo following 72 hours of compound treatment. All data shown is mean±SD of three biological replicates.

SU-DHL-2 [1] = assay: Total cellular GSH levels (GSH-Glo): SU-DHL-2; assay type: cell-based, human; details: 4 hrs, mean ± std. dev.
Method: as §1

[2] = tested on: NHLF, BJAB, SU-DHL-2, and HCT-116 cells; assay: Total cellular GSH levels (GSH-Glo), all lines; assay type: cell-based, human; details: tumor lines HCT-116, BJAB
Method: Total cellular GSH levels are reduced in tumor lines treated with Compound A197 The therapeutic compounds will cause a dose dependent reduction in total cellular glutathione in HCT-116, BJAB, SU-DHL-2, but not in NHLF cells. The maximum reduction of cellular GSH is in the range of 43-69%. The reduction In GSH levels appears independent of apoptosis.
as §1

[3] = Pharmacokinetics in CD-1 mice, single oral dose compared to single intravenous dose; assay type: in vivo; details: for bioavailability: CD-1, mouse, po; for Cmax: blood plasma
Method: Pharmacokinetic Properties of Compound A197 Compound A197 levels in blood plasma of CD-1 mice given a single, oral dose of the agent and compared to a single intravenous dose, were measured to assess basic pharmacokinetic parameters. A197 was dissolved in 1% NMP, 0.3% Tween-80 in 0.5% methylcellulose at a dose volume of 10 ml/kg. Following compound dosing, blood was collected by tail vein bleed at 30 minutes, 1, 2, 4, 8, 12, 24 and 48 hrs following dosing.

BJAB = assay: Apoptosis, 72 hr: BJAB; assay type: cell-based, human
DNA Damage = assay: High content imaging screen: DNA damage (Histone H2A.x phosphorylation); assay type: cell-based; details: Histtone H2A.x phosphorylation as marker
Method: Mechanism of Action Screens A series of broad high content imaging, transcriptomic, metabolomic, and CRISPR KO screens were performed to link Compound A197 activity to a probable method of action. The outcome of these screens included two notable observations.

HCT-116 xenograft = assay: Human tumor xenograft model, colorectal cancer cell line HCT-116; assay type: in vivo
Method: FIG. 10 is a set of graphs of in vivo treatment results for Athymic Nude mice engrafted with the DLBCL line SU-DHL-10 (left panel) or the CRC line HCT-116 (right panel). After 14 days, groups of mice (n=10 per group) were randomized by tumor volume and treated with Compound B19 (left panel) or Compound A197 (right panel). All animals dosed p.o. q.d. (orally once per day). Tumor burden was measured over 21 days. Compound B19 efficacy was monitored for 21 days following last dose to determine relapse. All data plotted as the mean±SEM, n=10 mice per group.
The positive results of the PK studies led to an evaluation of Compound A197 and Compound B19 in murine xenograft models of human tumors. Compound A197 was tested in a human tumor xenograft model using KRAS mutated colorectal cancer cell line HCT-116. Athymic nude mice (HSD:Athymic Nude-Foxn1 nu, Envigo) were inoculated subcutaneously with 5×10^6 HCT-116 cells in the right rear flank. The animals wethen staged and randomized by tumor size to achieve dose groups of 10 animals each with an average tumor volume of 150 mm^3. Tumor bearing mice were dosed once daily by oral gavage with a vehicle (5% NMP, 15% PEG400, 10% Solutol, and 70% D5W) or with A197 dissolved in vehicle to provide a dose concentration of 10 ml/kg. Compound B19 was tested in a human xenograft model using the human diffuse large B-cell lymphoma line SU-DHL-10 (ATCC). […]

SU-DHL-2 [4] = assay: Cell proliferation, Cell-Titre Glo, 72 hours: SU-DHL-2; assay type: cell-based; details: Homo sapiens, mean ± std. dev.
Method: as §1

GPCR = assay: In vitro assays: GPCR; assay type: biochemical; details: 69 family members
NHLF = assay: Total cellular GSH levels (GSH-Glo): NHLF; assay type: cell-based, human; details: 4 hrs
Method: as §1

eIF2α phosphorylation = eIF2α phosphorylation in HCT-116 cells, Western blotting; assay type: cell-based, human; details: 5 μM, 30 minutes, 1, 2 or 4 hrs
Method: FIG. 12 is a set of graphs of Compound A197-induced phosphorylation of eIF2a. HCT-116 cells were treated with 5 μM Compound A197. eIF2α and p-eIF2α levels were determined by Western blotting. All data are mean±SD (n=3). *=p<0.05; #p<0.005.
The canonical pathway of ATF4 induction involves eIF2α phosphorylation. To determine the levels of levels of eIF2α and p-eIF2α were determined using Western blotting. HCT-116 cells (1.5×10^5 per well) were cultured in 12 well tissue culture plates and treated with 5 μM Compound A197 dissolved in McCoys complete medium with 10% FBS for 30 minutes, 1,2 or 4 hrs. Following treatment, media was removed, the cells were washed with PBS and then lysed following addition of RIPA lysis buffer. The cell lysate is then clarified by centrifugation at 14,000×g for 10 minutes. The clarified lysate protein levels are determined using BCA methodology. All lysates are diluted with RIPA buffer to give a final concentration of 200 μg/ml. As a control, HCT-116 cells were starved for essential amino acids (EAA), which increases eIF2α phosphorylation via EIF2AAK4 (GCN2). The HCT-116 cells were plated as above but the media was removed and replaced with Earls Balanced salt solution. All subsequent steps for lysate preparation were identical to those described above.

[5] = Homo sapiens, read-out: GSH IC50 (Abs)
[6] = mouse, plasma, 0.5 mg/kg, Intravenous, 0.5 mpk

Cc1nn(-c2nc(-c3ccc(C(F)(F)F)cc3)c(SC(C)C)s2)c(C(=O)O)c1-c1cccc(F)c1 [Compound A197, 4-(3-fluorophenyl)-1-(5-(isopropylthio)-4-(4-(trifluoromethyl)phenyl)thiazol-2-yl)-3-methyl-1H-pyrazole-5-carboxylic acid]
GSH % Max reduction (HCT-116): 43 ± 9% | IC50 (HCT-116; [5]): 0.36 ± 0.72 µM | GSH % Max reduction (SU-DHL-2 [1]): 52 ± 4% | IC50 (SU-DHL-2 [1]; [5]): 0.12 ± 0.05 µM | maximum reduction of cellular GSH [2]: 43-69% | bioavailability ([3]; plasma, 2.5 mg/kg, Oral, 2.5 mpk, read-out: % F): 59.1% | bioavailability ([3]; plasma, 2.5 mg/kg, single oral dose compared to single intravenous dose, read-out: Bioavailability): 59% | t1/2 ([3]; Intravenous, 0.5 mpk): 5.6 h | Cmax ([3]; mouse, 0.5 mg/kg, Intravenous, 0.5 mpk): 2.88 µg/mL | Cmax ([3]; mouse, 2.5 mg/kg, Oral, 2.5 mpk): 2.61 µg/mL | AUC(0-inf) [3, 6]: 14.5 µg·h/mL | clearance [3, 6]: 0.0348 L/h/kg | Vd ([3]; mouse, plasma, 0.5 mg/kg, Intravenous, 0.5 mpk, read-out: Vss): 0.285 L/kg | AUC(0-inf) ([3]; mouse, plasma, 2.5 mg/kg, Oral, 2.5 mpk): 42.9 µg·h/mL | Tmax ([3]; mouse, plasma, 2.5 mg/kg, single oral dose, read-out: Plasma drug tmax): 6 h | half-life ([3]; mouse, plasma, iv, 0.5 mg/kg): 5.6 h | Apoptosis, 72 hr (BJAB): Yes | Outcome: DNA Damage (DNA Damage): No evidence of DNA damage using Histtone H2A.x | tumor growth in the solid tumor model (HCT-116 xenograft; HCT-116 xenograft, once daily oral gavage, 21 days, p<01 for 75 and 30 mpk doses): significantly slower growth | tolerability, signs of toxicity (HCT-116 xenograft; markers of liver function, metabolism, and myelopoiesis, tumor bearing mice (data not shown)): well-tolerated with no overt signs of toxicity | IC50 (SU-DHL-2 [4]): 0.18 ± 0.06 µM | Outcome: GPCR (GPCR): No activity on 69 family members | GSH % Max reduction (NHLF): 0% | eIF2α phosphorylation (eIF2α phosphorylation): Increased eIF2α phosphorylation within 30 minutes
